From article PMC9127750, “Structure-based design of CDC42 effector interaction inhibitors for the treatment of cancer” (Cell reports, 2022)
Values joined by “and” are separate entries in the source; they are usually repeats but may differ in a detail not shown here. Identical values can stand only once.

System: WM3248 melanoma cells, 486 antibodies
Test: Reverse phase protein arrays (RPPA)
Assay type: cell-based, Human
Description: Pellets were snap frozen in liquid nitrogen and shipped to MD Anderson Cancer Center core RPPA facility for RPPA analysis (Table S5). Three biological replicates for each sample were generated.
Nomenclatures on the RPPA heatmaps: name_of_antibody.species_of_antibody.status_of_antibody. V - antibody validated; C - validation of antibody in progress; Q - antibody nonspecific; E – under evaluation; antibodies raised in M - mouse, G - goat, R - rabbit, or T - rat.

[1] = level 20 normalized to 0, single replicates

SMILES: CN(C)c1cccc(Nc2cc(-c3ccccc3)nc(C3CCNCC3)n2)c1 [ARN22089, N1,N1-dimethyl-N3-(6-phenyl-2-(piperidin-4-yl)pyrimidin-4-yl)benzene-1,3-diamine]
- VHL.EPPK1.M.C Norm_20_1 to Norm_20_3 [1]: 0.500 and 1.345 and 0.800
- VHL.R.C Norm_20_1 to Norm_20_3 [1]: 0.916 and 0.962 and 0.841
- Vinculin.M.V Norm_20_1 to Norm_20_3 [1]: 0.883 and 0.898 and 1.015
- WIPI1.R.C Norm_20_1 to Norm_20_3 [1]: 1.294 and 1.483 and 1.388
- WIPI2.R.C Norm_20_1 to Norm_20_3 [1]: 1.222 and 0.891 and 1.265
- WTAP.R.V Norm_20_1 to Norm_20_3 [1]: 1.313 and 1.590 and 0.930
- Wee1.R.C Norm_20_1 to Norm_20_3 [1]: 0.789 and 0.790 and 1.159
- Wee1_pS642.R.C Norm_20_1 to Norm_20_3 [1]: 0.904 and 0.831 and 1.081
- XBP.1.G.C Norm_20_1 to Norm_20_3 [1]: 0.929 and 1.289
- XIAP.R.C Norm_20_1 to Norm_20_3 [1]: 0.985 and 0.834 and 1.059
- XPA.M.V Norm_20_1 to Norm_20_3 [1]: 0.800 and 0.980 and 0.934
- XPF.R.C Norm_20_1 to Norm_20_3 [1]: 0.837 and 0.882
- XRCC1.R.C Norm_20_1 to Norm_20_3 [1]: 0.881 and 1.133
- YAP.R.C Norm_20_1 to Norm_20_3 [1]: 0.917 and 1.135 and 0.817
- YAP_pS127.R.V Norm_20_1 to Norm_20_3 [1]: 1.228 and 0.736
- YB1_pS102.R.V Norm_20_1 to Norm_20_3 [1]: 0.867
- YES1.R.V Norm_20_1 to Norm_20_3 [1]: 0.976 and 0.995
- YTHDF2.R.V Norm_20_1 to Norm_20_3 [1]: 1.165 and 1.218 and 1.246
- YTHDF3.R.C Norm_20_1 to Norm_20_3 [1]: 1.003 and 1.082 and 1.010
- ZAP.70.R.V Norm_20_1 to Norm_20_3 [1]: 0.955 and 0.894 and 0.817
- ZEB1.R.V Norm_20_1 to Norm_20_3 [1]: 0.925 and 1.022 and 0.936
- HLA.DQA1.R.V Norm_20 Average (level 20 vs 0): 0.977
- HMHA1.R.V Norm_20 Average (level 20 vs 0): 1.016
- HNRNPK.R.V Norm_20 Average (level 20 vs 0): 0.991
- HSP27.M.C Norm_20 Average (level 20 vs 0): 0.811
- HSP27_pS82.R.V Norm_20 Average (level 20 vs 0): 0.961
- HSP60.R.V Norm_20 Average (level 20 vs 0): 0.996
- HSP70.R.C Norm_20 Average (level 20 vs 0): 1.202
- Hexokinase.I.R.C Norm_20 Average (level 20 vs 0): 1.201
- Hif.1αR.C Norm_20 Average (level 20 vs 0): 1.051
- Histone.H3.R.V Norm_20 Average (level 20 vs 0): 5.937
- Histone.H3_pS10.R.V Norm_20 Average (level 20 vs 0): 2.467
- IDO.R.C Norm_20 Average (level 20 vs 0): 0.964
- IGF1R_pY1135_Y1136.R.V Norm_20 Average (level 20 vs 0): 0.962
- IGFBP3.M.V Norm_20 Average (level 20 vs 0): 0.905
- IL.6.R.C Norm_20 Average (level 20 vs 0): 0.971
- IMP3.R.C Norm_20 Average (level 20 vs 0): 0.967
- INPP4b.R.C Norm_20 Average (level 20 vs 0): 0.976
- IRF.1.R.V Norm_20 Average (level 20 vs 0): 0.958
- IRF.3.R.V Norm_20 Average (level 20 vs 0): 0.882
- IRS1.R.V Norm_20 Average (level 20 vs 0): 1.050
- IRS2.R.C Norm_20 Average (level 20 vs 0): 1.223
- JAB1.M.C Norm_20 Average (level 20 vs 0): 0.970
- JNK2.R.V Norm_20 Average (level 20 vs 0): 1.099
- JNK_pT183_Y185.R.C Norm_20 Average (level 20 vs 0): 1.003
- Jagged1.R.V Norm_20 Average (level 20 vs 0): 1.028
- KAP1.R.V Norm_20 Average (level 20 vs 0): 1.259
- KEAP1.R.V Norm_20 Average (level 20 vs 0): 1.000
- LAD1.R.V Norm_20 Average (level 20 vs 0): 0.964
- LC3A.B.R.C Norm_20 Average (level 20 vs 0): 1.242
- LCN2.R.V Norm_20 Average (level 20 vs 0): 1.622
- LDHA.R.C Norm_20 Average (level 20 vs 0): 1.558
- LRP6_pS1490.R.V Norm_20 Average (level 20 vs 0): 1.024
- Lck.R.V Norm_20 Average (level 20 vs 0): 1.304
- Lyn.R.V Norm_20 Average (level 20 vs 0): 1.028
- MACC1.R.V Norm_20 Average (level 20 vs 0): 0.935
- MAPK_pT202_Y204.R.C Norm_20 Average (level 20 vs 0): 0.567
- MCT4.R.V Norm_20 Average (level 20 vs 0): 0.993
- MDM2_pS166.R.V Norm_20 Average (level 20 vs 0): 1.398
- MEK1.R.V Norm_20 Average (level 20 vs 0): 1.549
- MEK1_pS217_S221.R.V Norm_20 Average (level 20 vs 0): 0.977
- MEK2.R.V Norm_20 Average (level 20 vs 0): 1.030
- MERIT40.R.C Norm_20 Average (level 20 vs 0): 0.913
- MERIT40_pS29.R.V Norm_20 Average (level 20 vs 0): 1.026
- METTL3.R.V Norm_20 Average (level 20 vs 0): 1.246
- MIF.R.C Norm_20 Average (level 20 vs 0): 0.892
- MIG6.R.V Norm_20 Average (level 20 vs 0): 0.907
- MLH1.M.V Norm_20 Average (level 20 vs 0): 0.889
- MLKL.R.V Norm_20 Average (level 20 vs 0): 0.854
- MMP2.R.V Norm_20 Average (level 20 vs 0): 0.934
- MMP14.R.V Norm_20 Average (level 20 vs 0): 1.655
- MR1.M.C Norm_20 Average (level 20 vs 0): 0.987
- MRAP.R.C Norm_20 Average (level 20 vs 0): 1.110
- MSH2.R.C Norm_20 Average (level 20 vs 0): 0.939
- MSH6.R.C Norm_20 Average (level 20 vs 0): 1.329
- MSI2.R.C Norm_20 Average (level 20 vs 0): 1.187
- MTCO1.M.V Norm_20 Average (level 20 vs 0): 1.135
- MTSS1.M.C Norm_20 Average (level 20 vs 0): 0.937
- Mcl.1.R.V Norm_20 Average (level 20 vs 0): 0.754
- MelanA.R.C Norm_20 Average (level 20 vs 0): 1.025
- Melanoma.gp100.R.C Norm_20 Average (level 20 vs 0): 1.012
